In ChEMBL document CHEMBL3351749, “Synthesis, in vitro antimicrobial and cytotoxic activities of new carbazole derivatives of ursolic acid” (Bioorg Med Chem Lett, 2015):
≈ marks a conversion by molar mass, not a printed value.

Assays:
Candida tropicalis = assay: Antimicrobial activity against Candida tropicalis CGMCC2.3967 after 48 hrs by modified microdilution method; type: functional; conditions: CGMCC2.3967, 48 h
Aspergillus niger = assay: Antimicrobial activity against Aspergillus niger CGMCC3.316 after 48 hrs by modified microdilution method; type: functional; conditions: CGMCC3.316, 48 h
Candida albicans = assay: Antimicrobial activity against Candida albicans CGMCC2.2086 after 48 hrs by modified microdilution method; type: functional; conditions: CGMCC2.2086, 48 h
HepG2 = assay: Cytotoxicity against human HepG2 cells assessed as cell survival after 48 hrs by MTT assay; type: functional, cell-based; conditions: HepG2, 48 h
Pseudomonas fluorescens = assay: Antimicrobial activity against Pseudomonas fluorescens CGMCC1.1828 after 24 hrs by modified microdilution method; type: functional; conditions: CGMCC1.1828, 24 h
Staphylococcus aureus = assay: Antimicrobial activity against Staphylococcus aureus CGMCC1.1361 after 24 hrs by modified microdilution method; type: functional; conditions: CGMCC1.1361, 24 h
Escherichia coli = assay: Antimicrobial activity against Escherichia coli CGMCC1.1571 after 24 hrs by modified microdilution method; type: functional; conditions: CGMCC1.1571, 24 h
[1] = Cytotoxicity against human […] cells assessed as cell survival after 48 hrs by MTT assay; type: functional, cell-based
Bacillus subtilis = assay: Antimicrobial activity against Bacillus subtilis CGMCC1.1162 after 24 hrs by modified microdilution method; type: functional; conditions: CGMCC1.1162, 24 h

Compound	MIC (Candida tropicalis)	MIC (Aspergillus niger)	MIC (Candida albicans)	IC50 (HepG2)	MIC (Pseudomonas fluorescens)	MIC (Staphylococcus aureus)	MIC (Escherichia coli)	IC50 [1]	MIC (Bacillus subtilis)
COC(=O)[C@]12CC[C@@H](C)[C@H](C)[C@H]1C1=CC[C@@H]3[C@@]4(C)Cc5c([nH]c6ccc(OC)cc56)C(C)(C)[C@@H]4CC[C@@]3(C)[C@]1(C)CC2	> 100 µg/mL	> 100 µg/mL	> 100 µg/mL	> 100 µM	> 100 µg/mL	31.2 µg/mL (≈ 54.6 µM)	62.5 µg/mL (≈ 109 µM)	> 100 µM	31.2 µg/mL (≈ 54.6 µM)
C[C@H]1[C@H](C)CC[C@]2(C(=O)O)CC[C@]3(C)C(=CC[C@@H]4[C@@]5(C)Cc6c([nH]c7ccc(Br)cc67)C(C)(C)[C@@H]5CC[C@]43C)[C@H]12	62.5 µg/mL (≈ 103 µM)	31.2 µg/mL (≈ 51.4 µM)	62.5 µg/mL (≈ 103 µM)	38.4 µM	62.5 µg/mL (≈ 103 µM)	62.5 µg/mL (≈ 103 µM)	62.5 µg/mL (≈ 103 µM)	62.6 µM	31.2 µg/mL (≈ 51.4 µM)
COc1ccc2[nH]c3c(c2c1)C[C@]1(C)[C@H]2CC=C4[C@@H]5[C@@H](C)[C@H](C)CC[C@]5(C(=O)NCCCN(C)C)CC[C@@]4(C)[C@]2(C)CC[C@H]1C3(C)C	62.5 µg/mL (≈ 97.4 µM)	31.2 µg/mL (≈ 48.6 µM)	62.5 µg/mL (≈ 97.4 µM)	11.4 µM	31.2 µg/mL (≈ 48.6 µM)	31.2 µg/mL (≈ 48.6 µM)	31.2 µg/mL (≈ 48.6 µM)	12.8 µM	15.6 µg/mL (≈ 24.3 µM)
Cc1ccc2[nH]c3c(c2c1)C[C@]1(C)[C@H]2CC=C4[C@@H]5[C@@H](C)[C@H](C)CC[C@]5(C(=O)O)CC[C@@]4(C)[C@]2(C)CC[C@H]1C3(C)C	> 100 µg/mL	> 100 µg/mL	> 100 µg/mL	17 µM	62.5 µg/mL (≈ 115 µM)	62.5 µg/mL (≈ 115 µM)	31.2 µg/mL (≈ 57.6 µM)	13.8 µM	62.5 µg/mL (≈ 115 µM)
C[C@H]1[C@H](C)CC[C@]2(C(=O)O)CC[C@]3(C)C(=CC[C@@H]4[C@@]5(C)Cc6c([nH]c7ccc(F)cc67)C(C)(C)[C@@H]5CC[C@]43C)[C@H]12	> 100 µg/mL	62.5 µg/mL (≈ 115 µM)	62.5 µg/mL (≈ 115 µM)	15.2 µM	31.2 µg/mL (≈ 57.2 µM)	15.6 µg/mL (≈ 28.6 µM)	15.6 µg/mL (≈ 28.6 µM)	16.3 µM	15.6 µg/mL (≈ 28.6 µM)
C[C@H]1[C@H](C)CC[C@]2(C(=O)O)CC[C@]3(C)C(=CC[C@@H]4[C@@]5(C)Cc6c([nH]c7ccccc67)C(C)(C)[C@@H]5CC[C@]43C)[C@H]12	> 100 µg/mL	> 100 µg/mL	> 100 µg/mL	25.8 µM	15.6 µg/mL (≈ 29.6 µM)	31.2 µg/mL (≈ 59.1 µM)	15.6 µg/mL (≈ 29.6 µM)	40.4 µM	15.6 µg/mL (≈ 29.6 µM)
CC(=O)N1CCN(c2ccc(OCC3COC(Cn4ccnc4)(c4ccc(Cl)cc4Cl)O3)cc2)CC1 (configuration not stated) [KETOCONAZOLE]	3.9 µg/mL (≈ 7.34 µM)	7.8 µg/mL (≈ 14.7 µM)	3.9 µg/mL (≈ 7.34 µM)	–	–	–	–	–	–
COc1cccc2c3c([nH]c12)C(C)(C)[C@@H]1CC[C@]2(C)[C@H](CC=C4[C@@H]5[C@@H](C)[C@H](C)CC[C@]5(C(=O)NCCCN(C)C)CC[C@]42C)[C@@]1(C)C3	> 100 µg/mL	> 100 µg/mL	> 100 µg/mL	88.8 µM	31.2 µg/mL (≈ 48.6 µM)	62.5 µg/mL (≈ 97.4 µM)	31.2 µg/mL (≈ 48.6 µM)	36.2 µM	31.2 µg/mL (≈ 48.6 µM)
CCOc1ccc2[nH]c3c(c2c1)C[C@]1(C)[C@H]2CC=C4[C@@H]5[C@@H](C)[C@H](C)CC[C@]5(C(=O)OC)CC[C@@]4(C)[C@]2(C)CC[C@H]1C3(C)C	> 100 µg/mL	> 100 µg/mL	> 100 µg/mL	> 100 µM	62.5 µg/mL (≈ 107 µM)	31.2 µg/mL (≈ 53.3 µM)	> 100 µg/mL	> 100 µM	31.2 µg/mL (≈ 53.3 µM)
COc1cccc2c3c([nH]c12)C(C)(C)[C@@H]1CC[C@]2(C)[C@H](CC=C4[C@@H]5[C@@H](C)[C@H](C)CC[C@]5(C(=O)O)CC[C@]42C)[C@@]1(C)C3	> 100 µg/mL	> 100 µg/mL	> 100 µg/mL	> 100 µM	62.5 µg/mL (≈ 112 µM)	62.5 µg/mL (≈ 112 µM)	62.5 µg/mL (≈ 112 µM)	> 100 µM	62.5 µg/mL (≈ 112 µM)
C[C@H]1[C@H](C)CC[C@]2(C(=O)NCCCN(C)C)CC[C@]3(C)C(=CC[C@@H]4[C@@]5(C)Cc6c([nH]c7ccc(F)cc67)C(C)(C)[C@@H]5CC[C@]43C)[C@H]12	31.2 µg/mL (≈ 49.5 µM)	31.2 µg/mL (≈ 49.5 µM)	31.2 µg/mL (≈ 49.5 µM)	6.03 µM	7.8 µg/mL (≈ 12.4 µM)	7.8 µg/mL (≈ 12.4 µM)	7.8 µg/mL (≈ 12.4 µM)	4.6 µM	3.9 µg/mL (≈ 6.19 µM)
NCC[C@H](O)C(=O)N[C@@H]1C[C@H](N)[C@@H](O[C@H]2O[C@H](CN)[C@@H](O)[C@H](O)[C@H]2O)[C@H](O)[C@H]1O[C@H]1O[C@H](CO)[C@@H](O)[C@H](N)[C@H]1O [AMIKACIN]	–	–	–	–	0.9 µg/mL (≈ 1.54 µM)	0.9 µg/mL (≈ 1.54 µM)	1.9 µg/mL (≈ 3.24 µM)	–	0.9 µg/mL (≈ 1.54 µM)
